Earlier results on 1 compound are cited in US10695318B2, “Methods and compositions for improving cognitive function” (MARS, Incorporated, priority 2006, dated 2020).

This data set has as its system global CBF. The settings on record: inhalation of 5% C02 as vasodilative stimulus.

As for `O=C=O` [C02], the “global CBF increases” value was “approximately 87%”.
